≈ marks a conversion by molar mass, not a printed value.

For assay [1], the target named is T1, Ileal sodium/bile acid cotransporter (Homo sapiens, UniProt Q12908).
T1 sequence (Q12908 whole entry): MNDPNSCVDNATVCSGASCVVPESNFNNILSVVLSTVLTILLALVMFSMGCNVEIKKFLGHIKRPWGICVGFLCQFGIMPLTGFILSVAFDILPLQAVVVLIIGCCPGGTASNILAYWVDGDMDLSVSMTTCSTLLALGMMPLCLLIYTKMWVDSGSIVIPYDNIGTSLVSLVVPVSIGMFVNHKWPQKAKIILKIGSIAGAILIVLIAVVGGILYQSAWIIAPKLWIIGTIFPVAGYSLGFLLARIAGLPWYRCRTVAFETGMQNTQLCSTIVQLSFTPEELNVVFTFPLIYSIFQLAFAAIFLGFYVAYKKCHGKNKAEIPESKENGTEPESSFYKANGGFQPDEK
Nature of the assay: Binding affinity to ASBT (unknown origin) assessed as inhibition constant.

Assay [2] deals with T2, Hepatic sodium/bile acid cotransporter (Homo sapiens, UniProt Q14973).
T2 sequence (Q14973 whole entry): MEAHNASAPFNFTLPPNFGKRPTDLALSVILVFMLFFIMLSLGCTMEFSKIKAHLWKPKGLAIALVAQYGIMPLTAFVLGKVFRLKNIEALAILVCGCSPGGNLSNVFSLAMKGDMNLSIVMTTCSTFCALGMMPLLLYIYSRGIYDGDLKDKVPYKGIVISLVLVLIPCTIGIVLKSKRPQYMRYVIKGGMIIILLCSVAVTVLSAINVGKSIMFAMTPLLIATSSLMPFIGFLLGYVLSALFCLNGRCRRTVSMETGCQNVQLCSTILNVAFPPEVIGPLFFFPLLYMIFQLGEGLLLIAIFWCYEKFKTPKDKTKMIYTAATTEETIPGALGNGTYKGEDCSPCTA
Nature of the assay: Binding affinity to NTCP (unknown origin) assessed as inhibition constant.

The next assay has as its system Escherichia coli. Nature of the assay: Antibacterial activity against Escherichia coli. Format: functional.
The subject of a further assay is MCF7. Put plainly: Antiproliferative activity against human MCF7 by MTT assay. Type of assay: functional, cell-based.

As usually defined, the Ki is the dissociation constant of the complex between target and ligand, obtained from inhibition or displacement. Consider `C[C@H](CCC(=O)NCC(=O)O)[C@H]1CC[C@H]2[C@@H]3[C@H](OC(=O)c4cccnc4)C[C@@H]4C[C@H](O)CC[C@]4(C)[C@H]3CC[C@]12C`, for which the Ki in assay [1] came to 15.6 µM; in assay [2], 9.29 µM.

The MIC is the least concentration at which growth counts as inhibited. The low end stands for a more susceptible organism, the high end for a less susceptible organism. In the case of POLYMYXIN B, the MIC against Escherichia coli stood at 1.8 µg/mL.

In the case of `CCCCCCCCNCCC[C@@H](C)[C@H]1CC[C@H]2[C@@H]3[C@H](OCCCNC(=N)N)C[C@@H]4C[C@H](OCCCNC(=N)N)CC[C@]4(C)[C@H]3C[C@H](OCCCNC(=N)N)[C@]12C`, the MIC in the assay on Escherichia coli came out at 1 µg/mL (≈ 1.24 µM).

In the assay on Escherichia coli, `CCCCCCCCNCCC[C@@H](C)[C@H]1CC[C@H]2[C@@H]3[C@H](OCCCN)C[C@@H]4C[C@H](OCCCN)CC[C@]4(C)[C@H]3C[C@H](OCCCN)[C@]12C` came in with an MIC of 1.5 µg/mL (≈ 2.22 µM). The IC50 is the point on the concentration scale where inhibition reaches its midpoint. On to `COC(=O)[C@H](CCCCNC(=O)CC[C@H](C)[C@H]1CC[C@H]2[C@@H]3CC[C@@H]4C[C@H](OC(C)=O)CC[C@]4(C)[C@H]3C[C@H](OC(C)=O)[C@]12C)NC(=O)CC[C@@H](C)[C@H]1CC[C@H]2[C@@H]3CC[C@@H]4C[C@H](OC(C)=O)CC[C@]4(C)[C@H]3C[C@H](OC(C)=O)[C@]12C`, for which, in the assay on MCF7, the IC50 was more than 100 µM. Consider `COC(=O)[C@H](CCCCNC(=O)CC[C@H](C)[C@H]1CC[C@H]2[C@@H]3[C@H](O)C[C@@H]4C[C@H](O)CC[C@]4(C)[C@H]3C[C@H](O)[C@]12C)NC(=O)CC[C@@H](C)[C@H]1CC[C@H]2[C@@H]3[C@H](O)C[C@@H]4C[C@H](O)CC[C@]4(C)[C@H]3C[C@H](O)[C@]12C`, for which the IC50 with MCF7 is less than 10 µM. As for `C[C@H](CCC(=O)NCC(=O)O)[C@H]1CC[C@H]2[C@@H]3[C@H](O)C[C@@H]4C[C@H](OC(=O)c5cccnc5)CC[C@]4(C)[C@H]3CC[C@]12C`, the Ki in assay [1] came to 6.45 µM; in assay [2] it was 5.38 µM. For `C[C@H](CCC(=O)NCC(=O)O)[C@H]1CC[C@H]2[C@@H]3[C@@H](OC(=O)c4cccnc4)C[C@@H]4C[C@H](O)CC[C@]4(C)[C@H]3CC[C@]12C`, the Ki in assay [1] worked out at 15.2 µM; in assay [2] it was 11.8 µM. Taken in the same sequence, the figures for `C[C@H](CCC(=O)NCC(=O)O)[C@H]1CC[C@H]2[C@@H]3[C@@H](OC(=O)c4ccc(F)cc4)C[C@@H]4C[C@H](O)CC[C@]4(C)[C@H]3CC[C@]12C` were 8.39 µM and 2.55 µM.

In the assay with MCF7, `COC(=O)[C@H](CCCCNC(=O)CC[C@H](C)[C@H]1CC[C@H]2[C@@H]3CC[C@@H]4C[C@H](O)CC[C@]4(C)[C@H]3C[C@H](O)[C@]12C)NC(=O)CC[C@@H](C)[C@H]1CC[C@H]2[C@@H]3CC[C@@H]4C[C@H](O)CC[C@]4(C)[C@H]3C[C@H](O)[C@]12C` returned an IC50 of less than 10 µM. `C[C@H](CCC(=O)NCC(=O)O)[C@H]1CC[C@H]2[C@@H]3C(=O)C[C@@H]4C[C@H](O)CC[C@]4(C)[C@H]3CC[C@]12C`: the results for the Ki in assay [1] and in assay [2] were 20.4 µM and 4.21 µM, respectively. Turning to `C[C@H](CCC(=O)N[C@@H](CCCCNC(=O)CC[C@H](C)[C@H]1CC[C@H]2[C@@H]3CC[C@@H]4C[C@H](O)CC[C@]4(C)[C@H]3C[C@H](O)[C@]12C)C(=O)O)[C@H]1CC[C@H]2[C@@H]3CC[C@@H]4C[C@H](O)CC[C@]4(C)[C@H]3C[C@H](O)[C@]12C`, the IC50 with MCF7 was more than 50 µM. For `C[C@H](CCC(=O)N[C@@H](CCCCNC(=O)CC[C@H](C)[C@H]1CC[C@H]2[C@@H]3[C@H](O)C[C@@H]4C[C@H](O)CC[C@]4(C)[C@H]3C[C@H](O)[C@]12C)C(=O)O)[C@H]1CC[C@H]2[C@@H]3[C@H](O)C[C@@H]4C[C@H](O)CC[C@]4(C)[C@H]3C[C@H](O)[C@]12C`, in the assay with MCF7, the IC50 is more than 50 µM.

The values are drawn from ChEMBL document CHEMBL5230082, “Recent advances in steroid amino acid conjugates: Old scaffolds with new dimensions” (Eur J Med Chem, 2020).
